# Source: patent publication US20230212202A1, “TREATMENT OF MGMT DEFICIENT CANCER WITH 2-FLUOROETHYL-SUBSTITUTED NITROSOUREAS AND OTHER COMPOUNDS” (YALE UNIVERSITY, priority 2021, published 2023)
# Experiments:
# [1] = system: LN229 MGMT+/-, MMR+/- cells; assay: Short-term cell viability assay, four isogenic LN229 glioblastoma cell lines; format: cell-based, human
# [2] = system: PEO4 (BRCA2+) and PEO1 (BRCA2-/-) cells; assay: Short-term viability assay with or without O6BG; format: cell-based, human
# [3] = system: CHK1 and CHK2 phosphorylation in LN229 MGMT+/-, MMR+/- cells; assay: Western blotting of CHK1 and CHK2 phosphorylation; format: cell-based, human; conditions: 20 µM, 24 or 48 h
# Procedure: Western Blotting. For phospho-protein analysis experiments, cells were lysed in 1X RIPA buffer (Cell Signaling Technology, #9806) supplemented with 1X Protease Inhibitor Cocktail (Roche) and 1X PhosSTOP Phosphatase Inhibitor Cocktail (Sigma). For all other western blot analyses, cells were lysed in lysis buffer (50 mM HEPES, 250 mM NaCl, 5 mM EDTA, 1% NP-40) supplemented with 1X Protease Inhibitor Cocktail (Roche). The de-ubiquitination inhibitor N-ethylmaleimide (NEM, 4 mM) was added in FANCD2 ubiquitination analysis experiments. Proteins were separated using NuPAGE 4-12% Bis-Tris or 3-8% Tris-Acetate Gels (Invitrogen) and transferred to Immobilon-P PVDF membrane (Millipore) for western blotting. Membranes were blocked with 5% milk in TBS-T for 1 h prior to primary antibody addition overnight at 4° C. […] Where shown, bands were quantified using ImageJ software.
# LN229 MGMT-/MMR+ cells [4] = assay: IR alkaline comet assay; format: cell-based, human
# LN229 MGMT-/MMR+ cells [5] = assay: Genomic DNA denaturing gel electrophoresis; format: cell-based, human
# Procedure: Genomic DNA Denaturing Gel Electrophoresis. Assay was adapted from N. Bossuet-Greif et al., The Colibactin Genotoxin Generates DNA Interstrand Cross-Links in Infected Cells. mBio 9, (2018). Cells were trypsinized, washed with 1X PBS, and stored at -80° C. prior to processing. Genomic DNA was extracted with the DNeasy Blood & Tissue Kit (Qiagen) per kit protocol. A 0.7% agarose gel was prepared in 100 mM NaCl-2mM EDTA (pH 8) and soaked in 40 mM NaOH-1 mM EDTA running buffer for 2 h. Genomic DNA (400 ng/well) was then loaded in 1X BlueJuice loading buffer (Invitrogen) and subjected to electrophoresis at 2 V/cm for 30 min, followed by 3 V/cm for 2 h. The gel was neutralized in 150 mM NaCl-100 mM Tris (pH 7.4) for 30 min, twice, and then stained with 1X SYBR Gold in 150 mM NaCl-100 mM Tris (pH 7.4) for 90 min. Imaging was performed on a ChemiDoc XRS+ Molecular Imager (Bio-Rad).
# [6] = system: WT and XPA-deficient MEFs; assay: Short-term cell viability assay in NER isogenic MEFs; format: cell-based, mouse; conditions: ±MGMT depletion with O6BG
# Description: Short-term Cell Viability Assay.
# LN229 MGMT-/MMR- cells [7] = assay: Short-term cell viability assay; format: cell-based, human; conditions: Homo sapiens, LN-229
# [8] = system: PD20 cells, FANCD2-/- or +FANCD2; assay: Short-term viability assay; format: cell-based, human; conditions: PD20 FANCD2-/- vs +FANCD2
# [9] = system: DLD1 BRCA2+/- and BRCA2-/- cells; assay: Short-term viability assay with or without O6BG; format: cell-based, human
# LN229 MGMT-/MMR- cells [10] = assay: IR alkaline comet assay; format: cell-based, human; conditions: 200 µM, 2-24 h
# [11] = Maximum tolerated dose study in healthy mice; format: in vivo, mouse
# Procedure: Healthy mice were treated with escalating doses of KL-50 (4a) (0, 25, 50, 100, and 200 mg/kg × 1 dose), and monitored over time for changes in both weights and hematologic profiles. Mice in the higher dosage groups (100 or 200 mg/kg) experienced a greater than 10% weight loss after treatment administration, which regressed to baseline at the end of one week (FIG. 6B). […] As the main dose limiting systemic toxicity of TMZ (1a) is myelosuppression, complete blood counts were measured for all mice on day 0 before treatment and subsequently on day 7 after drug administration.
# [12] = system: LN229 MGMT-/MMR+ flank tumors
# Procedure for BJ fibroblast cells: Short-term Cell Viability Assay. Cells were seeded in 96-well plates at 1000 or 2000 cells/well and allowed to adhere at 23° C. for 60 min and then incubated overnight at 37° C. […] Cells were imaged on a Cytation 3 imaging reader (BioTek) and quantified using CellProfiler software.
smiles,measurement,setting,value
NC(=O)c1ncn2c(=O)n(CCF)nnc12 [KL-50],activity in the four LN229 cell lines,[1],mirrored that of 4b
same,rescue of toxicity by ROS scavenger NAC,[1],did not result in rescue
same,selectivity for MGMT-deficient cells,[1]; LN229,~ 25 fold
same,cytotoxicity in normal human fibroblast cells,BJ fibroblast cells,no increase in toxicity
same,sensitivity of BRCA2-/- cells,[2],BRCA2 loss enhanced the toxicity
same,therapeutic index (TI),[2]; PEO1/4 model,62 fold
same,CHK1 and CHK2 phosphorylation,[3],induced CHK1 and CHK2 phosphorylation in MGMT- cells regardless of MMR status
same,IR-induced comet tail (ICL detection),"LN229 MGMT-/MMR+ cells [4]; 200 µM, 24 h, 10 Gy",reduced the %DNA in the tail to levels similar to those seen for 0.1 µM MMC
same,comet tailing in the absence of IR,"LN229 MGMT-/MMR+ cells [4]; TMZ, KL-50 200 µM, MMC 0.1 or 50 µM",induced tailing
same,crosslinked genomic DNA,LN229 MGMT-/MMR+ cells [5],presence of crosslinked DNA
same,sensitivity of XPA deficient cells,[6],absence of additional sensitivity
same,IC50,LN229 MGMT-/MMR- cells [7],~20 µM
same,sensitivity of FANCD2-deficient cells,[8],hypersensitive
same,sensitivity of BRCA2-/- cells,[9],BRCA2 loss enhanced the toxicity
same,"therapeutic index (TI), ratio of IC50 values in MGMT+/BRCA2+ cells compared to MGMT-/BRCA2- cells",[9]; DLD1 isogenic model,~ 600 fold
same,"DNA damage in unirradiated samples, time course",LN229 MGMT-/MMR- cells [10]; 0 Gy,maximal damage at 2 h
same,"DNA mobility after IR, time course",LN229 MGMT-/MMR- cells [10]; 10 Gy,time-dependent decrease in DNA mobility
same,tolerability,"[11]; 0, 25, 50, 100, 200 mg/kg × 1 dose",well-tolerated
same,mice observably ill warranting euthanasia,[11]; 200 mg/kg,Two of three mice
same,weight loss after treatment administration,"[11]; 100 or 200 mg/kg, regressed to baseline at one week",greater than 10%
same,complete blood counts,"[11]; day 7, all cohorts",within normal physiological ranges
same,tumor growth,"[12]; 5 mg/kg MWF × 3 weeks, P.O.",statistically non-inferior to TMZ (1a)
same,body weight,"[12]; LN229 flank tumor experiments, compared to TMZ or control",no significant changes in body weight
